Data on 14 molecules can be found in US7074789B2, “Kinase inhibitors” (Amgen Inc., priority 1999, dated 2006).

Holding throughout (format): biochemical
One assay addresses T1, Lck (Homo sapiens, UniProt P06239).
T1 construct: Kinases are expressed as either kinase domains or full length constructs; made in house
In words: Kinase inhibition assay (33P transfer), Lck. The conditions noted are these: read-out: Lck-1. In short, it runs like this: (§1)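 Activity was read as 33P incorporation, counted by liquid scintillation after a 0.5% phosphoric acid wash, into poly(Glu,Tyr) 4:1 or poly(Arg,Ser) 3:1 substrates coated on plates. Enzymes were tagged (GST or polyHis) kinase domains or full-length proteins from bacterial or insect-cell expression, sometimes with regulatory polypeptides.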

For the next assay, the target named is T2, c-Met (Homo sapiens, UniProt P08581).
T2 construct: Kinases are expressed as either kinase domains or full length constructs; made in house
T2 sequence (P08581 25-1390): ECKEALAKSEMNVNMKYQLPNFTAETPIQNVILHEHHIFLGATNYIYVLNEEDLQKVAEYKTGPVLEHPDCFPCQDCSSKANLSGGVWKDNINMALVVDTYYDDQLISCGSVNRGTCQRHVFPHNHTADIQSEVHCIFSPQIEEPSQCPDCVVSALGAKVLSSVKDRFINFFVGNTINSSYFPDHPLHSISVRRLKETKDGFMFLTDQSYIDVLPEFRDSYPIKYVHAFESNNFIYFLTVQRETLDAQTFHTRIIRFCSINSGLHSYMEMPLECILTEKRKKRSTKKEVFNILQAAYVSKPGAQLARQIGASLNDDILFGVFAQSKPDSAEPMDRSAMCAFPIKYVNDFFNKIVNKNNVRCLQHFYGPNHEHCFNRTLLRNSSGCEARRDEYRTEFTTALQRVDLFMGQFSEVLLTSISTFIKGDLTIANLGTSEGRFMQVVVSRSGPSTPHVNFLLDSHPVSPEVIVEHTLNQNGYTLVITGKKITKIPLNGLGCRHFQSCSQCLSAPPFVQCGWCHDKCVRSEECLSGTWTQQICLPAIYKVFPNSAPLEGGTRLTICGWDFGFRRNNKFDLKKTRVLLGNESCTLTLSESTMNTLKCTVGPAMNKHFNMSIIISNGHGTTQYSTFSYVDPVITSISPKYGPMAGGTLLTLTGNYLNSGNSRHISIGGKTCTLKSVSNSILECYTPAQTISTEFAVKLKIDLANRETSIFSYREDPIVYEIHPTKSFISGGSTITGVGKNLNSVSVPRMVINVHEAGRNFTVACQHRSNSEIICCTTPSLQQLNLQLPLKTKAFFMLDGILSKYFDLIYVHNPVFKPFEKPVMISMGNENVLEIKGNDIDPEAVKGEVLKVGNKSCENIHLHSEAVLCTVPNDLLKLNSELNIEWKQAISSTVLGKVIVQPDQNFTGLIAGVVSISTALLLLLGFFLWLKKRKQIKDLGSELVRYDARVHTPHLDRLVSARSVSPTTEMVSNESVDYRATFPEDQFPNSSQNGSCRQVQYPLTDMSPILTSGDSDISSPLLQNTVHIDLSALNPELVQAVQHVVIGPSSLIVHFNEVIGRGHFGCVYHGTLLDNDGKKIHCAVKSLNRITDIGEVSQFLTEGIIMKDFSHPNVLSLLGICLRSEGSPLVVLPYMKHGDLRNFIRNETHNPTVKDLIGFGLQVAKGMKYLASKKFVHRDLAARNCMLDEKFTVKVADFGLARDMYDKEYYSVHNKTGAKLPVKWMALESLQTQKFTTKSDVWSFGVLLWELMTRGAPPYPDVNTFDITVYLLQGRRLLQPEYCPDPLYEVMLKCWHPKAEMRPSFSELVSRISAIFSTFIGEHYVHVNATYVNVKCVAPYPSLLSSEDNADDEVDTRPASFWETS
In words: Kinase inhibition assay (33P transfer), c-Met. The conditions noted are these: Table 2, kinase inhibition class; read-out: Met-1. In short, it runs like this:
(§2)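 Using immobilised substrate copolymers (poly(Glu,Tyr) 4:1; poly(Arg,Ser) 3:1) and [33P]ATP, purified fusion kinases were allowed to react; plates were then rinsed in 0.5% phosphoric acid and counted in a scintillation detector. Half-maximal inhibition of label transfer defines IC50.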

In the next assay the target is T3, EGFR (Homo sapiens, UniProt P00533).
T3 construct: Kinases are expressed as either kinase domains or full length constructs; made in house
Nature of the assay: Kinase inhibition assay (33P transfer), EGFR. Particulars: Table 2, kinase inhibition class; read-out: EGFR-1. A digest of the protocol:
as §2

In a further assay the target is T4, AKT (Homo sapiens, UniProt Q9Y243).
T4 construct: Kinases are expressed as either kinase domains or full length constructs; made in house
T4 sequence (Q9Y243 whole entry, the tested form may be a part): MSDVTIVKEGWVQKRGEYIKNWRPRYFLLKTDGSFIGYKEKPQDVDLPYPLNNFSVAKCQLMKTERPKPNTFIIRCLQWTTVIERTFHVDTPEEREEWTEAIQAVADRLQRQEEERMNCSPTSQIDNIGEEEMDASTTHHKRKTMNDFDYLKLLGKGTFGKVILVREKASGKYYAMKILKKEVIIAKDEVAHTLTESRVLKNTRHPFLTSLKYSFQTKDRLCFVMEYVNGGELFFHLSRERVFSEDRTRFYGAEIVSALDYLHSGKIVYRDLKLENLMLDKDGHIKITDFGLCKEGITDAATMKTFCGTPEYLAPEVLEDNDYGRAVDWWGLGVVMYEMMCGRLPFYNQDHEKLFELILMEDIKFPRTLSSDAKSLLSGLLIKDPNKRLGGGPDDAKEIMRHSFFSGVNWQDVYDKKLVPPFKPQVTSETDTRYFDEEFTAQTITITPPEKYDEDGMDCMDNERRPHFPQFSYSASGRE
In words: Kinase inhibition assay (33P transfer), AKT. Particulars: Table 2, kinase inhibition class; read-out: AKT3-1. In short, it runs like this:
as §1

Another assay addresses T5, PDGFRB (Homo sapiens, UniProt P09619).
T5 construct: Kinases are expressed as either kinase domains or full length constructs; made in house
In words: Kinase inhibition assay (33P transfer), PDGFRB. The conditions noted are these: read-out: PDGFRB-1.

The next assay has as its target T6, Itk (Homo sapiens, UniProt Q08881).
T6 construct: Kinases are expressed as either kinase domains or full length constructs; made in house
T6 sequence (Q08881 1-620): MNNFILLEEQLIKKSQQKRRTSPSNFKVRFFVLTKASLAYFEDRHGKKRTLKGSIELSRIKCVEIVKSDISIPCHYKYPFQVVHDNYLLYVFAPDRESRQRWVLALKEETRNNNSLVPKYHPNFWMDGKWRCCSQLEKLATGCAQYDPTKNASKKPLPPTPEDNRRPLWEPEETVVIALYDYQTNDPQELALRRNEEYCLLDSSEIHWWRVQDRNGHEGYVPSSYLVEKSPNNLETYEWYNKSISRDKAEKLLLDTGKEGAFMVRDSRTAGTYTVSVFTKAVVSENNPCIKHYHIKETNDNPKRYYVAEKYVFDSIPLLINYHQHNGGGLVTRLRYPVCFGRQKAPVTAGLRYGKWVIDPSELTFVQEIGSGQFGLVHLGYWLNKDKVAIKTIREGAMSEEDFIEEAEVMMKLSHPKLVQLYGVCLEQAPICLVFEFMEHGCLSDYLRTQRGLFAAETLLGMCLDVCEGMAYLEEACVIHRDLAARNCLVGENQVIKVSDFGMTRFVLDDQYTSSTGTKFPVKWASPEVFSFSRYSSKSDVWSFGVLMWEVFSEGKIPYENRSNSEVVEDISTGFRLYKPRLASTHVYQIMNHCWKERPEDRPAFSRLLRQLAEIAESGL
In words: Kinase inhibition assay (33P transfer), Itk. The conditions noted are these: read-out: Itk-1. In short, it runs like this: as §2

Another assay deals with T7, IGFR-1 (Homo sapiens, UniProt P08069).
T7 construct: Kinases are expressed as either kinase domains or full length constructs; made in house
In words: Kinase inhibition assay, IGFR-1 (Table 2). Particulars: Table 2, kinase inhibition class.

The target of the next assay is T8, ErbB2 (Homo sapiens, UniProt P04626).
T8 construct: Kinases are expressed as either kinase domains or full length constructs; made in house
In words: Kinase inhibition assay (33P transfer), ErbB2. The conditions noted are these: read-out: ErbB2-2. In short, it runs like this:
as §2

The next assay concerns the target T9, Kdr (Homo sapiens, UniProt P35968).
T9 construct: Kinases are expressed as either kinase domains or full length constructs; made in house
Nature of the assay: Kinase inhibition assay (33P transfer), Kdr. Particulars: read-out: KDR-1. In short, it runs like this: as §1

A further assay concerns the target T10, Zap-70 (Homo sapiens, UniProt P43403).
T10 construct: Kinases are expressed as either kinase domains or full length constructs; made in house
T10 sequence (P43403 1-619): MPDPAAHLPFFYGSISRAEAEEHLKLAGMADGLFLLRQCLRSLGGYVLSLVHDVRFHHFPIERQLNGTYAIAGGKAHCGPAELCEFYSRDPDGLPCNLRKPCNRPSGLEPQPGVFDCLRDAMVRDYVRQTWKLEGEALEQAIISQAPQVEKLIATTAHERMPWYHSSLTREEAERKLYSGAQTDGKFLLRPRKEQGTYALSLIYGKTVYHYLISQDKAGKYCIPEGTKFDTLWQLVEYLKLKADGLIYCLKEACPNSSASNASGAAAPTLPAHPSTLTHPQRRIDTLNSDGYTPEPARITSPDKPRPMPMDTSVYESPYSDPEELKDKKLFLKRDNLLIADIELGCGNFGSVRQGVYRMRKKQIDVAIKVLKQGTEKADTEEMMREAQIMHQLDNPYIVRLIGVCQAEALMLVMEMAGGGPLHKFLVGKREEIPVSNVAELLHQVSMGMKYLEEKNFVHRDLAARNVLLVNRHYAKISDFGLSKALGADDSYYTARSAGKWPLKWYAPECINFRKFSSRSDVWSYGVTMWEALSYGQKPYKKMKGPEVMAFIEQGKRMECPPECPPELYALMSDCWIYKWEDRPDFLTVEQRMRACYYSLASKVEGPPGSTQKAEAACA
Nature of the assay: Kinase inhibition assay (33P transfer), Zap-70. The conditions noted are these: read-out: Zap-1. In short, it runs like this: as §1

Some results are limits rather than exact numbers.

T9 sequence (P35968 20-1356, species assumed): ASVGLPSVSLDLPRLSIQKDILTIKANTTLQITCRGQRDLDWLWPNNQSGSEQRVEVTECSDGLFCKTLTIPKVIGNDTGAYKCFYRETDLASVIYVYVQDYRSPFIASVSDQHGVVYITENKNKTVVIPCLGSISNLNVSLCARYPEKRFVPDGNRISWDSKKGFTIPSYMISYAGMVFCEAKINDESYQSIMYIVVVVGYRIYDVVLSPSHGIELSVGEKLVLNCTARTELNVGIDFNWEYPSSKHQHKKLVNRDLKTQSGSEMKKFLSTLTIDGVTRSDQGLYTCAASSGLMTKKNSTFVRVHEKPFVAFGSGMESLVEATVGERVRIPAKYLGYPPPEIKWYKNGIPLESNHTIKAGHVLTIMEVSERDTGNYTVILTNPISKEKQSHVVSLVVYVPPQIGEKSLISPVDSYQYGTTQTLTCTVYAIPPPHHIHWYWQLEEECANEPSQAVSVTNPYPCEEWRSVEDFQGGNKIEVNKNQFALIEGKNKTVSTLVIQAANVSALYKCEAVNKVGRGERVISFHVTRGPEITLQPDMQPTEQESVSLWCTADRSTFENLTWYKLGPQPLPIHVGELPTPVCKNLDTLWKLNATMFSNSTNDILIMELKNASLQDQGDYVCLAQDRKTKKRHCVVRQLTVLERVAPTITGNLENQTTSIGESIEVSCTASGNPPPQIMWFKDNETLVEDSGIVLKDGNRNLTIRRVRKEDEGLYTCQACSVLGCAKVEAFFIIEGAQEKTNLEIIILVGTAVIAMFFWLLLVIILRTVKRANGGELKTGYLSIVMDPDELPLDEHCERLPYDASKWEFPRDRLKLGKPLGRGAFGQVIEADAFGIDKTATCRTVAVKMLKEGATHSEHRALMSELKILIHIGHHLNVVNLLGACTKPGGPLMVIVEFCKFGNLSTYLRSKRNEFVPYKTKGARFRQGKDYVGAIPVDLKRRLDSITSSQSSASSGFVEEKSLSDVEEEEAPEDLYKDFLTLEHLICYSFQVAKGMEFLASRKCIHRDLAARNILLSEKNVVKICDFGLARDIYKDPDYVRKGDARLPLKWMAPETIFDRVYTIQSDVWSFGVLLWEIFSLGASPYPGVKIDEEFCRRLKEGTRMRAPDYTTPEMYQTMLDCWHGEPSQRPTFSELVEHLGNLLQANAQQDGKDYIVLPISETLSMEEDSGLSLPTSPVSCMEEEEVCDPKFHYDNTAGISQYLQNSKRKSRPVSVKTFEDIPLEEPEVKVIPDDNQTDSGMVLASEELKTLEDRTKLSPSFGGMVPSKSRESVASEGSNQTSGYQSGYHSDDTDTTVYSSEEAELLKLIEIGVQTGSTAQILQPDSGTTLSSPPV
T5 sequence (P09619 33-1106, species assumed): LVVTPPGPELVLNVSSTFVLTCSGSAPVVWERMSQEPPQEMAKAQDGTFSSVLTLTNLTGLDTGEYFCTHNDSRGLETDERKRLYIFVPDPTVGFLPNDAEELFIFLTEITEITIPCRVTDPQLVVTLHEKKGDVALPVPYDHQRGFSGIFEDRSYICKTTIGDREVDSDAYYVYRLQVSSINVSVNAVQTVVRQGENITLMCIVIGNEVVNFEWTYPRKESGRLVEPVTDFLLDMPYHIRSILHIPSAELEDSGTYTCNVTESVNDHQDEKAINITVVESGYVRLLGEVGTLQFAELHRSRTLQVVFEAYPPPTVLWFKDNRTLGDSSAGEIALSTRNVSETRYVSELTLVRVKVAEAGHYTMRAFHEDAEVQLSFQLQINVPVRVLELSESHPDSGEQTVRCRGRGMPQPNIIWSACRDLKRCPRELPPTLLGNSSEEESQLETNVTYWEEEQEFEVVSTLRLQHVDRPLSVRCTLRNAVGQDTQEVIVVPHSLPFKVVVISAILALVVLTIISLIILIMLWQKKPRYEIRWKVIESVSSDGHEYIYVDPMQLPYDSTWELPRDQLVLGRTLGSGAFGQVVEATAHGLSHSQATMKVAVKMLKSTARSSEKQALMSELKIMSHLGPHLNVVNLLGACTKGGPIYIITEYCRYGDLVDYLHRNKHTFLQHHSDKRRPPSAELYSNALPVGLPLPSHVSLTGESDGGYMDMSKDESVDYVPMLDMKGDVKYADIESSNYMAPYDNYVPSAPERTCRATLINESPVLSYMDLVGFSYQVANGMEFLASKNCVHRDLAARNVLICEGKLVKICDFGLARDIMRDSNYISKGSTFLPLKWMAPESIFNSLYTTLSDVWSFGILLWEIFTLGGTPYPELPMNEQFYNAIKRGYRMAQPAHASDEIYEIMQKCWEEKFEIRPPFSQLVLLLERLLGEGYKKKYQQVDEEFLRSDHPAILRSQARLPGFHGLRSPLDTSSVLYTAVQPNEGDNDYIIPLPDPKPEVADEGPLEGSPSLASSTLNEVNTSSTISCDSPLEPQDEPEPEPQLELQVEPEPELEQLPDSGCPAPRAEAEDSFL
T1 sequence (P06239 whole entry, species assumed, the tested form may be a part): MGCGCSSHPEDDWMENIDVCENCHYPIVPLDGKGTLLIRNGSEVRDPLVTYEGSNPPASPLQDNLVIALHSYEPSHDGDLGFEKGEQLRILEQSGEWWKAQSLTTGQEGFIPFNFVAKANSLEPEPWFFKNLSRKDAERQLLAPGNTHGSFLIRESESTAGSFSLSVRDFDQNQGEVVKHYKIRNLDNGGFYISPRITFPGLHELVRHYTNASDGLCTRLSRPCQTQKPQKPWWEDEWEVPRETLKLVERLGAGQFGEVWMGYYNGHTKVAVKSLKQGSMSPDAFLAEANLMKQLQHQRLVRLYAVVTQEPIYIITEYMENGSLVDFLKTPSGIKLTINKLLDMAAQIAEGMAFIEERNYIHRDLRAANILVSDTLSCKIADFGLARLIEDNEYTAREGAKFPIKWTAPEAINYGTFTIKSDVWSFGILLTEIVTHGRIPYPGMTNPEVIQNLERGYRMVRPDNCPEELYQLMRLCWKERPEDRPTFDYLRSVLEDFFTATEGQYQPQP

On to `CN(c1cccc(Cl)c1)c1ncnc(Cl)n1` [Compound 701, N-methyl-2-chloro-4(3-chloroanilino)-1,3,5-triazine], for which the IC50 at Lck, on c-Met, at EGFR, on AKT, on PDGFRB and at Itk was more than 17.6 µM each time. Besides, the IC50 on IGFR-1, at ErbB2, on Kdr and on Zap-70 was more than 17.6 µM in each case.
For `COc1cc(Nc2ncnc(-n3c(NC4CCc5ccccc54)nc4ccccc43)n2)cc(OC)c1OC` (centres unmarked) [Compound 1044], the IC50 on Lck is 4.71 to 6.87 µM; at c-Met it was more than 8.83 µM; on EGFR it was 4.71 to 6.87 µM; at AKT it was more than 8.83 µM; on PDGFRB, 6.87 to 8.83 µM; at Itk, more than 8.83 µM. Moreover, the IC50 was more than 8.83 µM at IGFR-1, 0.785 to 4.71 µM at ErbB2, 0.785 to 4.71 µM on Kdr and more than 8.83 µM on Zap-70.
For `CN(c1cccc(Cl)c1)c1ncnc(Nc2cc(C(C)(C)C)on2)n1` [Compound 754], the IC50 on Lck, at c-Met, on EGFR, on AKT, at PDGFRB and at Itk was more than 12.5 µM in each case. The IC50 on IGFR-1, on ErbB2, at Kdr and at Zap-70 was more than 12.5 µM each time.
As to `COc1ccc([C@@H](C)Nc2nc3ccccc3n2-c2ncnc(Nc3cc(OC)c(OC)c(OC)c3)n2)cc1` [Compound 1045], the IC50 was 0.758 to 4.55 µM at Lck; more than 8.53 µM at c-Met; more than 8.53 µM on EGFR; more than 8.53 µM at AKT; 0.758 to 4.55 µM on PDGFRB; more than 8.53 µM at Itk. Also, the IC50 against IGFR-1 is more than 8.53 µM; on ErbB2, more than 8.53 µM; on Kdr, 0.758 to 4.55 µM; at Zap-70, more than 8.53 µM.
`COc1ccc(Nc2nc3ccccc3n2-c2ncnc(Nc3cc(OC)c(OC)c(OC)c3)n2)c(C)c1` [Compound 558]: the IC50 was 4.67 to 6.82 µM at Lck; 4.67 to 6.82 µM on c-Met; more than 8.76 µM on EGFR; more than 8.76 µM on AKT; 0.779 to 4.67 µM at PDGFRB; more than 8.76 µM at Itk. The IC50 against IGFR-1 is more than 8.76 µM; at ErbB2, 6.82 to 8.76 µM; at Kdr it was less than 0.779 µM; at Zap-70, 4.67 to 6.82 µM.
For the molecule `Cc1ccc2c(c1)CCCN2c1ncnc(Nc2cccc(-c3cnco3)c2)n1` [Compound 774], the IC50 on Lck is 1.04 to 6.24 µM; at c-Met it was less than 1.04 µM; on EGFR, less than 1.04 µM; on AKT it was 1.04 to 6.24 µM; at PDGFRB, less than 1.04 µM; at Itk, 1.04 to 6.24 µM. In addition, the IC50 on IGFR-1 is 6.24 to 9.1 µM; on ErbB2, less than 1.04 µM; on Kdr, 1.04 to 6.24 µM; on Zap-70, more than 11.7 µM.
Consider `COc1ccc(Nc2ncnc(NC[C@@H]3CCCO3)n2)cc1OC` [Compound 790], for which the IC50 was more than 13.6 µM at Lck; more than 13.6 µM at c-Met; more than 13.6 µM at EGFR; more than 13.6 µM at AKT; 10.6 to 13.6 µM on PDGFRB; more than 13.6 µM at Itk. For the same molecule, the IC50 is more than 13.6 µM on IGFR-1, 1.21 to 7.24 µM on ErbB2, more than 13.6 µM at Kdr and more than 13.6 µM at Zap-70.
With `COc1ccc([C@H](C)Nc2nc3ccccc3n2-c2ncnc(Nc3cc(OC)c(OC)c(OC)c3)n2)cc1` [Compound 1046], the IC50 on Lck, on c-Met, at EGFR, at AKT, on PDGFRB and on Itk was more than 8.53 µM in each case. In addition, the IC50 against IGFR-1 was more than 8.53 µM; at ErbB2, more than 8.53 µM; on Kdr, less than 0.758 µM; on Zap-70, more than 8.53 µM.
With `CCN1CCCC1CNc1ncnc(Nc2ccc(OC)c(OC)c2)n1` (centres unmarked) [Compound 781], the IC50 is more than 12.6 µM on Lck; more than 12.6 µM on c-Met; more than 12.6 µM on EGFR; more than 12.6 µM at AKT; 1.12 to 6.7 µM on PDGFRB; more than 12.6 µM at Itk. In addition, the IC50 on IGFR-1, on ErbB2, at Kdr and at Zap-70 was more than 12.6 µM in each case.
As to `COC(=O)Cc1cccc(Nc2ncnc(Nc3cccc(Br)c3)n2)c1` [Compound 540], the IC50 on Lck was 0.966 to 5.79 µM; at c-Met, 5.79 to 8.45 µM; on EGFR, less than 0.966 µM; on AKT, more than 10.9 µM; on PDGFRB, 8.45 to 10.9 µM; at Itk, 8.45 to 10.9 µM. Moreover, the IC50 against IGFR-1 was less than 0.966 µM; on ErbB2 it was 0.966 to 5.79 µM; at Kdr, 5.79 to 8.45 µM; at Zap-70 it was more than 10.9 µM.
As for `CN(c1cccc(Cl)c1)c1ncnc(Nc2cccc(Cc3nnn[nH]3)c2)n1` [Compound 720], the IC50 on Lck is 1.02 to 6.09 µM; on c-Met, less than 1.02 µM; at EGFR it was less than 1.02 µM; on AKT it was more than 11.4 µM; on PDGFRB, 1.02 to 6.09 µM; at Itk it was more than 11.4 µM. For the same molecule, the IC50 against IGFR-1 is more than 11.4 µM; on ErbB2, less than 1.02 µM; at Kdr, 1.02 to 6.09 µM; on Zap-70, 6.09 to 8.89 µM.
Regarding `Cc1ccc2c(c1)CCCN2c1ncnc(Nc2cccc(Cl)c2C)n1` [Compound 778], the IC50 was more than 12.3 µM at Lck; 1.09 to 6.56 µM on c-Met; 6.56 to 9.57 µM at EGFR; 1.09 to 6.56 µM on AKT; more than 12.3 µM at PDGFRB; more than 12.3 µM at Itk. Besides, the IC50 against IGFR-1 is more than 12.3 µM; at ErbB2 it was 6.56 to 9.57 µM; at Kdr it was 6.56 to 9.57 µM; at Zap-70, more than 12.3 µM.
Turning to `CCOC(=O)N1CCC(Nc2ncnc(N3CCCc4cc(C)ccc43)n2)CC1` [Compound 765], the IC50 at Lck, on c-Met, at EGFR, at AKT, at PDGFRB and at Itk was more than 11.3 µM throughout. In addition, the IC50 against IGFR-1, on ErbB2, on Kdr and at Zap-70 was more than 11.3 µM each time.
For the molecule `Cc1ccc2c(c1)CCCN2c1ncnc(Nc2cc[nH]n2)n1` [Compound 766], the IC50 at Lck was 1.3 to 7.81 µM; at c-Met, 1.3 to 7.81 µM; at EGFR, 1.3 to 7.81 µM; on AKT, more than 14.6 µM; on PDGFRB, 1.3 to 7.81 µM; at Itk, less than 1.3 µM. Also, the IC50 against IGFR-1 is 1.3 to 7.81 µM; at ErbB2, 1.3 to 7.81 µM; at Kdr, 1.3 to 7.81 µM; at Zap-70 it was more than 14.6 µM.
